65 molecules from publication PMC7539012, “Hyperphosphorylated tau aggregation and cytotoxicity modulators screen identified prescription drugs linked to Alzheimer's disease and cognitive functions” (Scientific Reports, 2020) can be followed below.

Counter-ions that a name gives are not always drawn.

The subject of the first assay is T1, 1N4R p-tau.
T1 construct: made in house; host or cells: E. coli (PIMAX system)
The assay is described as follows: p-tau aggregation modulator screen of 1280-compound library (ThS fluorescence net change over 16 h).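 On ThS net change: 30 µM compound with 6 µM p-tau over 16 h.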 Type of assay: biochemical. Set-up: key to PTAI>3SD: *: PTAI>3SD.
Settings: not given
The molecule `Cc1ccc(O)c([C@H](CCN(C(C)C)C(C)C)c2ccccc2)c1` [Tolterodine tartrate] yielded a ThS net change of 422.

The molecule `N[C@@H]1C[C@H]1c1ccccc1` [Tranylcypromine hydrochloride] registered a ThS net change of 377.

`CN(C)CCCN1c2ccccc2Sc2ccc(C(F)(F)F)cc21` [Triflupromazine hydrochloride]: the ThS net change is recorded as 280.

Consider `CN[C@H](CC(C)C)C(=O)N[C@H]1C(=O)N[C@@H](CC(N)=O)C(=O)N[C@H]2C(=O)N[C@H]3C(=O)N[C@H](C(=O)N[C@H](C(=O)O)c4cc(O)cc(O)c4-c4cc3ccc4O)[C@H](O)c3ccc(c(Cl)c3)Oc3cc2cc(c3O[C@@H]2O[C@H](CO)[C@@H](O)[C@H](O)[C@H]2O[C@H]2C[C@](C)(N)[C@H](O)[C@H](C)O2)Oc2ccc(cc2Cl)[C@H]1O` [Vancomycin hydrochloride], for which the ThS net change was determined as 408.

`COc1ccc(CCN(C)CCCC(C#N)(c2ccc(OC)c(OC)c2)C(C)C)cc1OC` (stereo not drawn) [Verapamil hydrochloride] returned a ThS net change of 325.

The same assay, now with this note: 1280-compound library screen; ThS fluorescence net change over 16 h.
Take `CCCCNC(=O)NS(=O)(=O)c1ccc(C)cc1` [Tolbutamide]: the ThS net change is 392.

`Cc1c(Cl)cccc1Nc1ccccc1C(=O)O` [Tolfenamic acid]: the ThS net change stood at 383.

On to `CC1(C)O[C@@H]2[C@@H](CO[C@@]3(COS(N)(=O)=O)OC(C)(C)O[C@@H]23)O1` [Topiramate], for which the ThS net change is listed as 392.

Turning to `CN(C)CCOc1ccc(/C(=C(/CCCl)c2ccccc2)c2ccccc2)cc1` [Toremifene], the ThS net change stood at 406.

Take `NC[C@H]1CC[C@H](C(=O)O)CC1` [Tranexamic acid]: the ThS net change stood at 409.

In turn, `COc1ccc(/C=C/C(=O)Nc2ccccc2C(=O)O)cc1OC` [Tranilast] displayed a ThS net change of 392.

For `CSc1nc2cc(Cl)c(Oc3cccc(Cl)c3Cl)cc2[nH]1` [Triclabendazole], the ThS net change is listed as 382.

Take `CC[N+](CC)(CC)CCC(O)(c1ccccc1)C1CCCCC1.[Cl-]` (stereo not drawn) [Tridihexethyl chloride]: the ThS net change was found to be 402.

For the molecule `COc1cc(C(=O)N2CCOCC2)cc(OC)c1OC` [Trimetozine], the ThS net change was determined as 404.

On to `CC(CN(C)C)CN1c2ccccc2CCc2ccccc21.O=C(O)/C=C\C(=O)O` (stereo not drawn) [Trimipramine maleate salt], for which the ThS net change is 399.

`Cc1cc2cc3c(C)cc(=O)oc3c(C)c2o1` [Trioxsalen] yielded a ThS net change of 390.

`COc1cc(C(=O)NC2CCCNC2)cc(OC)c1OC` (stereo not drawn) [Troxipide] showed a ThS net change of 407.

For the molecule `CC(C)(C)NCC(O)c1ccccc1Cl` (stereo not drawn) [Tulobuterol], the ThS net change was 398.

Molecule `CC(C)C[C@H](NC(=O)[C@@H](O)[C@H](N)Cc1ccccc1)C(=O)O` [Ubenimex] showed a ThS net change of 390.

The molecule `COc1ccccc1N1CCN(CCCNc2cc(=O)n(C)c(=O)n2C)CC1` [Urapidil hydrochloride] displayed a ThS net change of 388.

Molecule `CC(C)[C@H](N)C(=O)OCCOCn1cnc2c(=O)[nH]c(N)nc21` [Valacyclovir hydrochloride] had a ThS net change of 396.

`Cc1onc(-c2ccccc2)c1-c1ccc(S(N)(=O)=O)cc1` [Valdecoxib] registered a ThS net change of 393.

`CCCC(CCC)C(=O)O` [Valproic acid] showed a ThS net change of 403.

Molecule `Nc1ncnc2c1ncn2[C@@H]1O[C@H](CO)[C@@H](O)[C@@H]1O` [Vidarabine] had a ThS net change of 401.

Staying with this assay, now noted: 1280-compound library screen; […].
`CNCC[C@@H](Oc1ccccc1C)c1ccccc1` [Tomoxetine hydrochloride] yielded a ThS net change of 389.

On to `C(#CCN1CCCC1)CN1CCCC1.Cl.Cl` [Tremorine dihydrochloride], for which the ThS net change was 391.

Consider `Oc1cc(Cl)ccc1Oc1ccc(Cl)cc1Cl` [Triclosan], for which the ThS net change was found to be 398.

`CCC(COC(=O)c1cc(OC)c(OC)c(OC)c1)(c1ccccc1)N(C)C` (stereo not drawn) [Trimebutine] displayed a ThS net change of 406.

In turn, `CC(=O)O[C@H]1C[C@@H]2CC[C@@H]3[C@H](CC[C@@]4(C)[C@H]3C[C@H]([N+]3(C)CCCCC3)[C@@H]4OC(C)=O)[C@@]2(C)C[C@@H]1N1CCCCC1` [Vecuronium bromide] had a ThS net change of 382.

For the molecule `COc1ccc(C(CN(C)C)C2(O)CCCCC2)cc1` (stereo not drawn) [Venlafaxine], the ThS net change came to 404.

The assay is the same for the next values; noted with them: flag: p-tau aggregation inhibitor, ThS net change more than 3 SD from mean.
With `C=Cc1c(C)c2cc3nc(cc4[nH]c(cc5nc(cc1[nH]2)C(C)=C5CCC(=O)O)c(CCC(=O)OC)c4C)[C@@]1(C)C3=CC=C(C(=O)OC)C1C(=O)OC` (stereo partly drawn) [Verteporfin], the “PTAI>3SD” value is listed as “*”.

The assay is the same for the next values; noted with them: library screen, ThS fluorescence net change over 16 h with p-tau.
Consider `Cc1ccc(C(=O)c2cc(O)c(O)c([N+](=O)[O-])c2)cc1` [Tolcapone], for which the ThS net change was 214.

`Cc1cccc(N(C)C(=S)Oc2ccc3ccccc3c2)c1` [Tolnaftate] displayed a ThS net change of 219.

Regarding `O=c1n(CCCN2CCN(c3cccc(Cl)c3)CC2)nc2ccccn12` [Trazodone hydrochloride], the ThS net change was determined as 316.

`C[C@]12C=CC(=O)C=C1CC[C@H]1[C@@H]3C[C@@H](O)[C@](O)(C(=O)CO)[C@@]3(C)C[C@H](O)[C@@]12F` [Triamcinolone] showed a ThS net change of 259.

As for `CN1CCN(CCCN2c3ccccc3Sc3ccc(C(F)(F)F)cc32)CC1` [Trifluoperazine dihydrochloride], the ThS net change stood at 299.

Molecule `COc1cc(C(=O)NCc2ccc(OCCN(C)C)cc2)cc(OC)c1OC` [Trimethobenzamide hydrochloride] had a ThS net change of 322.

As to `C=Cc1c(C)c2cc3nc(cc4[nH]c(cc5nc(cc1[nH]2)C(C)=C5CCC(=O)O)c(CCC(=O)OC)c4C)[C@@]1(C)C3=CC=C(C(=O)OC)C1C(=O)OC` (stereo partly drawn) [Verteporfin], the ThS net change was -157.

Staying with this assay, now noted: p-tau aggregation modulator screen of 1280-compound library; ThS fluorescence net change.
The molecule `Cc1ccc(C(=O)c2ccc(CC(=O)O)n2C)cc1` [Tolmetin sodium salt dihydrate] gave a ThS net change of 364.

In the case of `Cl.NC1CCN(c2nc3c(cc2F)c(=O)c(C(=O)O)cn3-c2ccc(F)cc2F)C1` (stereo not drawn) [Tosufloxacin hydrochloride], the ThS net change is recorded as 354.

For `Nc1nc(N)c2nc(-c3ccccc3)c(N)nc2n1` [Triamterene], the ThS net change amounted to 354.

The molecule `NS(=O)(=O)c1cc2c(cc1Cl)NC(C(Cl)Cl)NS2(=O)=O` (stereo not drawn) [Trichlormethiazide] gave a ThS net change of 375.

With `CC(=O)Oc1cc(C(F)(F)F)ccc1C(=O)O` [Triflusal], the ThS net change is 343.

For the molecule `CC(CN(C)C)CN1c2ccccc2Sc2ccccc21.CC(CN(C)C)CN1c2ccccc2Sc2ccccc21.O=C(O)C(O)C(O)C(=O)O` (stereo not drawn) [Trimeprazine tartrate], the ThS net change was determined as 354.

With `CN1C(=O)OC(C)(C)C1=O` [Trimethadione], the ThS net change came out at 346.

Regarding `COc1cc(Cc2cnc(N)nc2N)cc(OC)c1OC` [Trimethoprim], the ThS net change turned out to be 360.

`Cc1ccc(/C(=C\CN2CCCC2)c2ccccn2)cc1.Cl` [Triprolidine hydrochloride]: the ThS net change was found to be 360.

`CO[C@H]1C[C@H](O[C@H]2[C@H](C)[C@@H](O[C@@H]3O[C@H](C)C[C@H](N(C)C)[C@H]3OC(C)=O)[C@@H](C)C[C@@]3(CO3)C(=O)[C@H](C)[C@@H](OC(C)=O)[C@@H](C)[C@@H](C)OC(=O)[C@@H]2C)O[C@@H](C)[C@@H]1OC(C)=O` [Troleandomycin] showed a ThS net change of 357.

For the molecule `CC[C@H]1OC(=O)C[C@@H](O)[C@H](C)[C@@H](O[C@@H]2O[C@H](C)[C@@H](O[C@H]3C[C@@](C)(O)[C@@H](O)[C@H](C)O3)[C@H](N(C)C)[C@H]2O)[C@@H](CC=O)C[C@@H](C)C(=O)/C=C/C(C)=C/[C@@H]1CO[C@@H]1O[C@H](C)[C@@H](O)[C@@H](OC)[C@H]1OC` [Tylosin], the ThS net change turned out to be 372.

`Clc1ccc(Nc2nnc(Cc3ccncc3)c3ccccc23)cc1` [Vatalanib] returned a ThS net change of 356.

In turn, `C=CC(N)CCC(=O)O` (stereo not drawn) [Vigabatrin] came in with a ThS net change of 362.

Staying with this assay, now noted: p-tau aggregation modulator screen of 1280-compound library; […].
On to `COc1cccc([C@@]2(O)CCCC[C@@H]2CN(C)C)c1.Cl` [Tramadol hydrochloride], for which the ThS net change came to 373.

`COP(=O)(OC)C(O)C(Cl)(Cl)Cl` (stereo not drawn) [Trichlorfon]: the ThS net change is recorded as 340.

In the case of `COc1ccc(CN2CCNCC2)c(OC)c1OC` [Trimetazidine dihydrochloride], the ThS net change was 365.

Still in this assay, the particulars now being: p-tau aggregation modulator screen of the compound library, ThS fluorescence net change.
`Cc1cc(-n2c(=O)[nH]c(=O)n(C)c2=O)ccc1Oc1ccc(SC(F)(F)F)cc1` [Toltrazuril]: the ThS net change was found to be 511.

For `CC[C@@]1(O)C(=O)OCc2c1cc1n(c2=O)Cc2cc3c(CN(C)C)c(O)ccc3nc2-1` [Topotecan], the ThS net change is reported as 5499.

`Cc1cccc(Nc2ccncc2S(=O)(=O)NC(=O)NC(C)C)c1` [Torsemide] displayed a ThS net change of 455.

As for `CCCCNc1c(C(=O)OCC)c(C)nc2c1cnn2CC.Cl` [Tracazolate hydrochloride], the ThS net change is 440.

As to `CCOC1O[C@H]([C@@H](COCc2ccccc2)OCc2ccccc2)[C@H](OCc2ccccc2)[C@H]1O` (stereo partly drawn) [Tribenoside], the ThS net change amounted to 690.

`O=c1[nH]c(=O)n([C@H]2C[C@H](O)[C@@H](CO)O2)cc1C(F)(F)F` [Trifluridine] returned a ThS net change of 463.

Molecule `CN(C)CCN(Cc1ccccc1)c1ccccn1` [Tripelennamine hydrochloride] gave a ThS net change of 414.

`Cc1c(C)c2c(c(C)c1O)CCC(C)(COc1ccc(CC3SC(=O)NC3=O)cc1)O2` (stereo not drawn) [Troglitazone] displayed a ThS net change of 451.

Take `Cc1c(C)c2c(c(C)c1O)CCC(C)(C(=O)O)O2` (stereo not drawn) [Trolox]: the ThS net change came to 413.

`C[C@H](CCC(=O)O)[C@H]1CC[C@H]2[C@@H]3[C@@H](O)C[C@@H]4C[C@H](O)CC[C@]4(C)[C@H]3CC[C@]12C` [Urosiol] gave a ThS net change of 426.

As to `CCCCC(=O)N(Cc1ccc(-c2ccccc2-c2nnn[nH]2)cc1)[C@H](C(=O)O)C(C)C` [Valsartan], the ThS net change worked out at 417.

In turn, `CCCc1nc(C)c2c(=O)[nH]c(-c3cc(S(=O)(=O)N4CCN(CC)CC4)ccc3OCC)nn12` [Vardenafil] displayed a ThS net change of 414.
